According to patent US20260256792A1, “TREATMENT OF CHRONIC SPONTANEOUS URTICARIA BY ADMINISTERING (R)-2-[3-[4-AMINO-3-(2-FLUORO-4-PHENOXY-PHENYL)PYRAZOLO[3,4-D]PYRIMIDIN-1-YL]PIPERIDINE-1-CARBONYL]-4-METHYL-4-[4-(OXETAN-3-YL)PIPERAZIN-1-YL]PENT-2-ENENITRILE” (priority 2023, published 2026):

Test system: moderate-to-severe chronic spontaneous urticaria (CSU)
Experiment: Phase 2 CSU study: urticaria activity score over 7 days (UAS7)
Assay type: in vivo, human
Design: key to UAS7 Median / UAS7 Change from baseline Median / UAS7 change from baseline, Q1 / UAS7 change from baseline, Q3 / UAS7 change from baseline, Max / UAS7 Change from baseline LS Mean (SE): UAS7 points; daily UAS score ranges 0–6 points/day, over 7 days
Conditions: for UAS7 Change from baseline LS Mean (SE) / UAS7 Post-baseline Mean (SD) / UAS7 % Change difference for rilzabrutinib vs. placebo LS Mean (95% CI) / UAS7 % Change from baseline LS Mean (SE) / UAS7 Change difference for rilzabrutinib vs. placebo LS Mean (95% CI): ITT population, 400 mg TID; for Imputed non-responder n (%), UAS7 = 0 / Imputed non-responder n (%), UAS7 ≤6 / Non-responder n (%), UAS7 = 0 / Non-responder n (%), UAS7 ≤6 / OR for rilzabrutinib vs. placebo, UAS7 = 0 / OR for rilzabrutinib vs. placebo, UAS7 ≤6 / RRD (%) for rilzabrutinib vs. placebo, UAS7 = 0 / RRD (%) for rilzabrutinib vs. placebo, UAS7 ≤6 / Responder n (%), UAS7 = 0 / Responder n (%), UAS7 ≤6: ITT, 400 mg BID
Excerpt: The study comprises a 12 week, randomized, double-blind, placebo-controlled, multi-center, dose-ranging efficacy and safety phase, followed by a 40 week open label extension (OLE) phase (see FIG. 1). The study consists of three phases and an optional OLE phase. […] Clinically, CSU is characterized by the spontaneous and recurrent appearance of pruritic hives. The proposed primary endpoints were the UAS7 at Week 12 in EU and EU reference countries and the ISS7 in the US. Regardless of where a participant was from, all assessments were the same. The UAS7 score is a composite score containing both the HSS7 and the ISS7. This allowed a global assessment of the two key components of urticaria: hives and itch. […] The UAS is a validated PRO measure. […] The daily UAS scores range from 0 to 6 point/day. […] Patients were to complete the UAS using the e-diary. […] The following secondary endpoints were to be analyzed using the same approach as for the primary endpoint: • Change from baseline in UAS7 at Week 4 • Change from baseline in UAS7 at Week 12 (for US and US reference countries) • Change from baseline in ISS7 at Week 12 (except US and US reference countries) • Change from baseline in HSS7 at Week 12 The following responder secondary endpoints were to be analyzed using the Cochran-Mantel-Haenszel test adjusted by region: • Proportion of participants with UAS7<6 at Week 12 • Proportion of participants with UAS7=0 at Week 12 Participants who received selected prohibited medications and/or rescue medications were to be considered as non-responders for time points after the medication usage. For other participants, all available data including those collected during the off-treatment period were to be used to determine the responder/non-responder status. Missing data were to be considered as non-responders.

CC(C)(C=C(C#N)C(=O)N1CCC[C@@H](n2nc(-c3ccc(Oc4ccccc4)cc3F)c3c(N)ncnc32)C1)N1CCN(C2COC2)CC1 [rilzabrutinib, (R)-2-[3-[4-amino-3-(2-fluoro-4-phenoxy-phenyl)pyrazolo[3,4-d]pyrimidin-1-yl]piperidine-1-carbonyl]-4-methyl-4-[4-(oxetan-3-yl)piperazin-1-yl]pent-2-enenitrile]
UAS7 Change from baseline LS Mean (SE) (Week 5): −16.68 | UAS7 Post-baseline Mean (SD) (Week 5): 12.72 (10.63) | UAS7 % Change difference for rilzabrutinib vs. placebo LS Mean (95% CI) (Week 6): −27.22% | UAS7 % Change from baseline LS Mean (SE) (Week 6): −54.12% | UAS7 Change difference for rilzabrutinib vs. placebo LS Mean (95% CI) (Week 6): −7.54 | UAS7 Change from baseline LS Mean (SE) (Week 6): −16.68 | UAS7 Post-baseline Mean (SD) (Week 6): 12.95 (11.42) | UAS7 % Change difference for rilzabrutinib vs. placebo LS Mean (95% CI) (Week 7): −25.60% | UAS7 % Change from baseline LS Mean (SE) (Week 7): −52.94% | UAS7 Change difference for rilzabrutinib vs. placebo LS Mean (95% CI) (Week 7): −7.30 | UAS7 Change from baseline LS Mean (SE) (Week 7): −16.36 | UAS7 Post-baseline Mean (SD) (Week 7): 13.31 (9.35) | UAS7 % Change difference for rilzabrutinib vs. placebo LS Mean (95% CI) (Week 8): −22.78% | UAS7 % Change from baseline LS Mean (SE) (Week 8): −54.62% | UAS7 Change difference for rilzabrutinib vs. placebo LS Mean (95% CI) (Week 8): −6.17 | UAS7 Change from baseline LS Mean (SE) (Week 8): −16.52 | UAS7 Post-baseline Mean (SD) (Week 8): 12.33 (10.15) | UAS7 % Change difference for rilzabrutinib vs. placebo LS Mean (95% CI) (Week 9): −26.48% | UAS7 % Change from baseline LS Mean (SE) (Week 9): −54.53% | UAS7 Change difference for rilzabrutinib vs. placebo LS Mean (95% CI) (Week 9): −7.09 | UAS7 Change from baseline LS Mean (SE) (Week 9): −16.69 | UAS7 Post-baseline Mean (SD) (Week 9): 11.76 (9.95) | UAS7 % Change difference for rilzabrutinib vs. placebo LS Mean (95% CI) (Week 10): −23.22% | UAS7 % Change from baseline LS Mean (SE) (Week 10): −56.75% | UAS7 Change difference for rilzabrutinib vs. placebo LS Mean (95% CI) (Week 10): −6.30 | UAS7 Change from baseline LS Mean (SE) (Week 10): −17.20 | UAS7 Post-baseline Mean (SD) (Week 10): 11.82 (10.15) | UAS7 % Change difference for rilzabrutinib vs. placebo LS Mean (95% CI) (Week 11): −25.03% | UAS7 % Change from baseline LS Mean (SE) (Week 11): −55.80% | UAS7 Change difference for rilzabrutinib vs. placebo LS Mean (95% CI) (Week 11): −6.74 | UAS7 Change from baseline LS Mean (SE) (Week 11): −17.15 | UAS7 Post-baseline Mean (SD) (Week 11): 12.17 (10.81) | Imputed non-responder n (%), UAS7 = 0 (Week 1): 1 (2.4) n (%) | Imputed non-responder n (%), UAS7 ≤6 (Week 1): 1 (2.4) n (%) | Non-responder n (%), UAS7 = 0 (Week 1): 38 (92.7) n (%) | Non-responder n (%), UAS7 ≤6 (Week 1): 34 (82.9) n (%) | OR for rilzabrutinib vs. placebo, UAS7 = 0 (Week 1): 3.132 | OR for rilzabrutinib vs. placebo, UAS7 ≤6 (Week 1): 3.469 | RRD (%) for rilzabrutinib vs. placebo, UAS7 = 0 (Week 1): 4.7 % | RRD (%) for rilzabrutinib vs. placebo, UAS7 ≤6 (Week 1): 10.3 % | Responder n (%), UAS7 = 0 (Week 1): 3 (7.3) n (%) | Responder n (%), UAS7 ≤6 (Week 1): 7 (17.1) n (%) | Imputed non-responder n (%), UAS7 = 0 (Week 2): 2 (4.9) n (%) | Imputed non-responder n (%), UAS7 ≤6 (Week 2): 2 (4.9) n (%) | Non-responder n (%), UAS7 = 0 (Week 2): 38 (92.7) n (%) | Non-responder n (%), UAS7 ≤6 (Week 2): 35 (85.4) n (%) | OR for rilzabrutinib vs. placebo, UAS7 = 0 (Week 2): 2.893 | OR for rilzabrutinib vs. placebo, UAS7 ≤6 (Week 2): 2.834 | RRD (%) for rilzabrutinib vs. placebo, UAS7 = 0 (Week 2): 4.2 % | RRD (%) for rilzabrutinib vs. placebo, UAS7 ≤6 (Week 2): 7.7 % | Responder n (%), UAS7 = 0 (Week 2): 3 (7.3) n (%) | Responder n (%), UAS7 ≤6 (Week 2): 6 (14.6) n (%) | Imputed non-responder n (%), UAS7 = 0 (Week 3): 1 (2.4) n (%) | Imputed non-responder n (%), UAS7 ≤6 (Week 3): 1 (2.4) n (%) | Non-responder n (%), UAS7 = 0 (Week 3): 37 (90.2) n (%) | Non-responder n (%), UAS7 ≤6 (Week 3): 31 (75.6) n (%) | OR for rilzabrutinib vs. placebo, UAS7 = 0 (Week 3): 3.857 | OR for rilzabrutinib vs. placebo, UAS7 ≤6 (Week 3): 2.554 | RRD (%) for rilzabrutinib vs. placebo, UAS7 = 0 (Week 3): 6.3 % | Responder n (%), UAS7 = 0 (Week 3): 4 (9.8) n (%) | Responder n (%), UAS7 ≤6 (Week 3): 10 (24.4) n (%) | Imputed non-responder n (%), UAS7 = 0 (Week 4): 4 (9.8) n (%) | Imputed non-responder n (%), UAS7 ≤6 (Week 4): 4 (9.8) n (%) | Non-responder n (%), UAS7 = 0 (Week 4): 38 (92.7) n (%) | Non-responder n (%), UAS7 ≤6 (Week 4): 28 (68.3) n (%) | OR for rilzabrutinib vs. placebo, UAS7 = 0 (Week 4): 1.278
